Tests used:
B7-1/CD28 = target: T1, B7-1/CD28 (Homo sapiens, UniProt P33681); assay: CD28/B7-1 ELISA (B7-1/CD28 binding inhibition); settings: CD28-Fc coated wells; B7-1-Fc-biotin/streptavidin-alkaline phosphatase detection complex; 1% DMSO
T1 sequence (P33681 35-242 limits assumed): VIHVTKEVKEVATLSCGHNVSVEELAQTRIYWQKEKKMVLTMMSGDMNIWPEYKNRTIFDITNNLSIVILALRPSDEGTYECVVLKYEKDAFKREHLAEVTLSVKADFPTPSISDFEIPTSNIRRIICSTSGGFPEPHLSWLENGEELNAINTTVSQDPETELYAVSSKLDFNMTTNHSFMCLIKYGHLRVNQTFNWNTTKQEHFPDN
Protocol: Evaluation of B7-1/CD28 Binding Inhibition for Test Compounds
Wells are coated with 300 ng CD28-Fc in carbonate buffer (pH 9.4) overnight at 4° C., blocked with 1% bovine serum albumin in tris-buffered saline (TBS) for 1 h at 22° C. and washed 3 times in TBS prior to assay. The detection complex is formed as follows: B7-1-Fc-biotin, prepared using NHS-LC-biotin (Pierce #21335) according to the manufacturers instructions (4.1 moles biotinimole Fc), is added at 0.8 ug/ml to streptavidin-alkaline phosphatase (Caltag Sa1008) at 1:1000 in TBS. A solution of test compound in dimethylsulfoxide (1% final) are added to this complex and incubated 30 min at 22° C. Detection complex (+/−inhibitors) is then added to the CD28 coated wells for 25 min at 22° C., washed 5 times with TBS, developed with the colorimetric substrate pNPP (Pierce #34045) in diethanolamine/MgCl2 buffer (pH 9.5) and read at 405 nm. The inhibition constant (IC50) is calculated by subtracting background binding and comparing to uninhibited (DMSO alone) controls. The inhibition constant represents the concentration of test compound required to achieve 50% inhibition.

Row | SMILES | IC50 (B7-1/CD28) | melting point
1 | Cn1ncc2c3[nH]n(-c4ccc(C(=O)NCCCCCN)cc4)c(=O)c3c(-c3cccc(C(F)(F)F)c3)nc21 [Example 39] | 140 nM | 234.5 to 236 °C
2 | COC(=O)c1cccc(NC(=O)c2ccc(-n3[nH]c4c(c(-c5cccc(C(F)(F)F)c5)nc5c4cnn5C)c3=O)cc2)c1 [Example 42] | 94 nM | 220 to 222 °C
3 | Cn1ncc2c3[nH]n(-c4ccc(C(=O)Nc5cccc6c5CCCC6O)cc4)c(=O)c3c(-c3cccc(C(F)(F)F)c3)nc21 (stereo not shown) [Example 43] | 300 nM | 298 °C (dec.)
4 | Cn1ncc2c3[nH]n(-c4cccc(C(=O)N5CCC[C@H]5C(=O)O)c4)c(=O)c3c(-c3cccc(C(F)(F)F)c3)nc21 [Example 69] | 100 nM | 168 to 171 °C
5 | Cn1ncc2c3[nH]n(-c4ccc(C(=O)Nc5ccc(O)c(O)c5)cc4)c(=O)c3c(-c3cccc(C(F)(F)F)c3)nc21 [Example 98] | 36 nM | 206 to 209 °C

Source: US6734190B2, “Dihydrodipyrazolopyridinylbenzamide and -sulfonamide inhibitors of B7-1” (Wyeth, priority 2002, dated 2004)
